What was measured:
[1] = 12 PJI patients, 1500 mg day 1, 8, 14 then 1000 mg biweekly from day 28; all Cmin values well above target; ref Söderquist et al., 2024; cited from earlier work
Method: Currently, there is considerable heterogeneity in the use of SAT with dalbavancin for OAIs in both the initial and the maintenance doses. For the latter, some proposed regimens range from 500 mg weekly to 500 mg biweekly to 1000 mg biweekly (Martín et al., 2019; Morata et al., 2019; Wunsch et al., 2019). However, none of these studies employed TDM to assess the pharmacological efficacy of such regimens. Söderquist et al. (2024) recently shared their experience with 12 patients treated with long-term ( >12 weeks) dalbavancin for PJI, according to the Swedish national guidelines and introducing ...

[2] = tested on: osteoarticular infections (OAIs); experiment: Clinical effectiveness from chart review in patients with osteoarticular infections; assay type: in vivo, human
Method: We established effectiveness with an assessment of clinical and microbiological outcomes from chart review detected up to 31 October 2024. If the patient was still on dalbavancin treatment, the clinical outcome was assessed as “ongoing treatment”. Otherwise, the assessment could result in the following: (i) completed therapy with clinical success (absence of failure or relapse at the follow-up); (ii) failure (clinical or microbiological failure with uncontrolled infection during dalbavancin treatment; need for medical interventions for the treated episode in addition to the initial program); (iii) relapse (exacerbation of the clinical condition within 6 months after the end of treatment); (iv) discontinuation of therapy due to AEs; (v) discontinuation of therapy due to new hospitalization for other clinical events; (vi) missing data (insufficient details to assess the outcome; lost at follow-up); (vii) death for infection-related conditions; or (viii) death for non-infection-related conditions.

[3] = Therapeutic drug monitoring of plasma dalbavancin Cmin (LC-MS/MS) from the fourth dose onward; assay type: in vivo, human
Method: Included patients received the first three dalbavancin doses on day 1 (T0), day 8 (T1), and day 43 (T2) (Senneville et al., 2023). Subsequent injection timings were personalized and determined using dalbavancin Cmin measured immediately before the dalbavancin administration and maximum plasma concentrations ( Cmax ) measured 30 min after the end of the injection (Fig. 1). Starting from the third dose, Cmin and Cmax values were used in log-linear regression models by plotting logarithmic dalbavancin concentrations with time (Microsoft Excel Software, Microsoft Company, USA) (Cattaneo et al., 2023) to plan the subsequent administration aiming to maintain Cmin levels at ≥8 mg L^−1, as recommended in the recent literature (Cojutti et al., 2021).
Plasma dalbavancin blood samples were assessed using ethylene–diamine–tetraacetic acid (EDTA)-containing Vacutainers®. All samples were centrifuged at 3000 × g and plasma was separated and stored at -20 °C. Dalbavancin quantification was performed through a validated liquid chromatography tandem mass spectrometry method developed and validated according to the EMA guidelines. The analytical process consisted of a fast protein precipitation protocol of 50 µ L of plasma with 400 µ L of precipitation solution (methanol / acetonitrile, 3 / 1), centrifugation at 10 000 × g , 1 : 3 dilutions with water, and analysis. Chromatographic separation was achieved using a gradient (acetonitrile and water with formic acid 0.1 %) on a reversed-phase analytical column (Acquity UPLC BEH C18 1.70 µ m 2.1 × 50 mm; Waters, Milan, Italy). For quantification, analysis was performed in ESI-positive mode by monitoring the transition m/z = 909.45 > 340.2 for dalbavancin. The method was linear from 1 to 500 mg L^−1, with intraday and interday assay imprecision and inaccuracy consistently < 10 % during each analytical run.
The primary outcome was to evaluate the pharmacological efficacy of our proactive TDM-based administration method in maintaining the dalbavancin Cmin level at ≥8 mg L^−1 or ≥4 mg L^−1 taken from the fourth dose onward.
Pharmacological efficacy was defined as the number of instances where Cmin≥8 mg L^−1(or ≥4 mg L^−1) was achieved from the fourth dose onward. […] A tolerance window of up to ±4 d from the calculated injection date was allowed to adapt the model to real-life conditions and improve adherence to the treatment regimen.

Isolated pathogens = experiment: MIC of pathogens isolated from the patients; assay type: cell-based; details: calculated for one patient only
Excerpt: Table 1 Baseline characteristics of the study population.

[4] = Safety: monitoring of adverse events, renal toxicity and platelet count; assay type: in vivo, human; details: patients n=33, treatment >12 weeks
Method: Safety was assessed by monitoring AEs. We defined renal toxicity as a reduction in the estimated glomerular filtration rate (eGFR) to less than 30 mL min^−1/1.73 m^2, accompanied by a decrease of at least 20 % from baseline. A significant reduction in platelet count was considered when the count fell below 100 000 per mm^−3 with a decrease of at least 25 % from baseline.

[5] = cited from earlier work
[6] = only determinations within ±4 d of the date suggested by the model, plasma
[7] = plasma trough determinations from fourth dose onward, 33 OAI patients, TDM-guided dosing, total concentration

In the case of `CN[C@H]1C(=O)N[C@@H]2Cc3ccc(cc3)Oc3cc4cc(c3O[C@@H]3O[C@H](C(=O)O)[C@@H](O)[C@H](O)[C@H]3NC(=O)CCCCCCCCC(C)C)Oc3ccc(cc3Cl)[C@@H](O)[C@@H]3NC(=O)[C@H](NC(=O)[C@@H]4NC(=O)[C@@H](NC2=O)c2cc(cc(O)c2Cl)Oc2cc1ccc2O)c1ccc(O)c(c1)-c1c(O[C@H]2O[C@H](CO)[C@@H](O)[C@H](O)[C@@H]2O)cc(O)cc1[C@@H](C(=O)NCCCN(C)C)NC3=O` [dalbavancin], the Cmin [1] is given as over 8000 ng/mL, the “Completed therapy with clinical success, n (%)” value ([2]; patients n=33) is given as 11 (33.3) n (%) and the “Failure, n (%)” value ([2]; patients n=33) is given as 1 (3) n (%). The “Ongoing, n (%)” value ([2]; patients n=33, still on treatment with controlled infection at end of study) was 18 (54.5) n (%), the “Relapse, n (%)” value ([2]; patients n=33, within 6 months after end of treatment) was 3 (9.1) n (%) and the “Cmin ≥4 mg L^−1, n (%), Cmin performed at correct timing (n=95)” value [3, 6] was 93 (97.9) n (%). For the same compound, the “Cmin ≥8 mg L^−1, n (%), Cmin performed at correct timing (n=95)” value [3, 6] was 81 (85.3) n (%), the “Cmin ≥4 mg L^−1, n (%), Total Cmin (n=118)” value [3, 7] was 114 (96.6) n (%) and the “Cmin ≥8 mg L^−1, n (%), Total Cmin (n=118)” value [3, 7] was 93 (78.8) n (%). For the same compound, the MIC for dalbavancin (Isolated pathogens) was under 0.06 µg/mL, the “AEs, n (%)” value [4] was 0 n (%) and the “Adverse effects on renal function or platelet count” value [4] was “did not observe any adverse effects on renal function or platelet count”. For the same compound, the “penetration proportion into bone tissue” value ([5]; ref Dunne et al., 2015) was 13.1%, the half-life ([5]; ref Rappo et al., 2019a) was 14.4 days and the total binding protein ([5]; ref Rappo et al., 2019a) was 93%.
